Results on nine compounds are retold here after article PMC6197744, “Triazolo[4,5-d]pyrimidines as Validated General Control Nonderepressible 2 (GCN2) Protein Kinase Inhibitors Reduce Growth of Leukemia Cells” (Computational and Structural Biotechnology Journal, 2018).

Values after ≈ are worked out from the molar mass of the structure shown. Read-outs that look alike come from different tables or passages of the source.

Data set [1] has as its system GCN2. Details: method as in PMID 25587754. To be noted: biochemical inhibition of kinase activity; cited from earlier work.
Data set [2] concerns the target T1, human GCN2 (Homo sapiens, UniProt Q9P2K8).
T1 construct: purchased Reaction Biology Corporation (Malvern, PA)
Put plainly: radiometric HotSpot kinase assay. In kind it is biochemical. Particulars: ATP at the ATP Km of GCN2; means of two independent experiments. The procedure: (§1) Compounds 1–9 were screened in a radiometric […] kinase assay against human GCN2 and other kinases involved in the UPR and ISR pathways (Table 1). […] The most soluble of the potent tool compounds (1 and 2) were selected for in vitro cell-based assays where the phosphorylation of eIF2α (p-eIF2α) was used as a readout for GCN2 inhibition.
(§2) In vitro compound profiling for recombinant GCN2, PERK, HRI, PKR, or IRE1 kinases were performed at Reaction Biology Corporation (Malvern, PA) using the HotSpot kinase assay. Briefly, all compounds provided for testing were dissolved in 10 mM DMSO stock solutions. Serial dilutions were conducted by epMotion 5070 in DMSO. Specific kinase/substrate mixtures and required cofactors were prepared in reaction buffer (20 mM Hepes (pH 7.5), 10 mM MgCl2, 1 mM EGTA, 0.02% Brij35, 0.02 mg/ml BSA, 0.1 mM Na3VO4, 2 mM DTT, 1% DMSO). Compounds were added to the kinase reaction mixture by Acoustic technology (Echo550; nanoliter range) and incubated for 20 min at room temperature. The kinase reaction was initiated by adding ^33P ATP to a final concentration of 10 μM for single point kinase activity reading or to the ATP Km of GCN2 for IC50 readings. The reaction was incubated or 2 h at room temperature and kinase activity was detected by filter-binding method. IC50 values and curves were generated with GraphPad Prism 7 (GraphPad software).

Data set [3] deals with T2, PERK (Homo sapiens, UniProt Q9NZJ5).
T2 construct: purchased Reaction Biology Corporation (Malvern, PA)
T2 sequence (Q9NZJ5 30-1116): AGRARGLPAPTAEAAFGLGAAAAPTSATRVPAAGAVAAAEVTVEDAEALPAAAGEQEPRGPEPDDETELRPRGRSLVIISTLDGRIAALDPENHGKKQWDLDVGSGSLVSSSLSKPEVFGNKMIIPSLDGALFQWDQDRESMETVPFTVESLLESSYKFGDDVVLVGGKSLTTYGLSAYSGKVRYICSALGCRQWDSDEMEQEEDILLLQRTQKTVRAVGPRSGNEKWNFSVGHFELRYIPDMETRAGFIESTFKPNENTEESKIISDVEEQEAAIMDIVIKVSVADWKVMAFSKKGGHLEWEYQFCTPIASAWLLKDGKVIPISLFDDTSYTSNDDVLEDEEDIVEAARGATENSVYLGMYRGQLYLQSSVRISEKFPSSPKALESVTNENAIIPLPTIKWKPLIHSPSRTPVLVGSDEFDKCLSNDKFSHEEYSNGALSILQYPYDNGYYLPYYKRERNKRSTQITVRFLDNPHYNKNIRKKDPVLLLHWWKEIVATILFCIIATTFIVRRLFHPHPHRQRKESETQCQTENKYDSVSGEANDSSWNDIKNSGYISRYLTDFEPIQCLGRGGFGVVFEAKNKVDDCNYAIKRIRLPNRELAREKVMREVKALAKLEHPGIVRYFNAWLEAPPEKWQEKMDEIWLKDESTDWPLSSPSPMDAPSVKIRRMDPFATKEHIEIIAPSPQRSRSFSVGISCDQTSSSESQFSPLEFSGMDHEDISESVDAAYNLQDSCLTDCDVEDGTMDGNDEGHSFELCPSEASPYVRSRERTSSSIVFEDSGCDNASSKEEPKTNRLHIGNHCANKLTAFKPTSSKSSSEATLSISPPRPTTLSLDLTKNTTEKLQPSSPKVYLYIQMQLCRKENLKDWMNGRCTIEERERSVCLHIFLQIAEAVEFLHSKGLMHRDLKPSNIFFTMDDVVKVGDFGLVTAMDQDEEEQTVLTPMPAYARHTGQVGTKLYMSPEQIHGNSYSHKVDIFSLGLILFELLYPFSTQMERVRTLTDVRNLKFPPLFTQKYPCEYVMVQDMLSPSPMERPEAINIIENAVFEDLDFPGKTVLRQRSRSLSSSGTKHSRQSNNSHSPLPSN
Put plainly: radiometric HotSpot kinase assay. It is filed as biochemical. To be noted: read-out: % Enzyme inhibition at 10 μM, PERK. Here is the method: as §2, with “Serial dilutions were conducted by epMotion 5070 in DMSO.” left out, “The kinase reaction was initiated by adding ^33P ATP to a final concentration of 10 μM for single point kinase activity reading or to the ATP Km of GCN2 for IC50 readings.” left out

The target in data set [4] is T3, HRI (Homo sapiens, UniProt Q9BQI3).
T3 construct: purchased Reaction Biology Corporation (Malvern, PA)
T3 sequence (Q9BQI3 whole entry): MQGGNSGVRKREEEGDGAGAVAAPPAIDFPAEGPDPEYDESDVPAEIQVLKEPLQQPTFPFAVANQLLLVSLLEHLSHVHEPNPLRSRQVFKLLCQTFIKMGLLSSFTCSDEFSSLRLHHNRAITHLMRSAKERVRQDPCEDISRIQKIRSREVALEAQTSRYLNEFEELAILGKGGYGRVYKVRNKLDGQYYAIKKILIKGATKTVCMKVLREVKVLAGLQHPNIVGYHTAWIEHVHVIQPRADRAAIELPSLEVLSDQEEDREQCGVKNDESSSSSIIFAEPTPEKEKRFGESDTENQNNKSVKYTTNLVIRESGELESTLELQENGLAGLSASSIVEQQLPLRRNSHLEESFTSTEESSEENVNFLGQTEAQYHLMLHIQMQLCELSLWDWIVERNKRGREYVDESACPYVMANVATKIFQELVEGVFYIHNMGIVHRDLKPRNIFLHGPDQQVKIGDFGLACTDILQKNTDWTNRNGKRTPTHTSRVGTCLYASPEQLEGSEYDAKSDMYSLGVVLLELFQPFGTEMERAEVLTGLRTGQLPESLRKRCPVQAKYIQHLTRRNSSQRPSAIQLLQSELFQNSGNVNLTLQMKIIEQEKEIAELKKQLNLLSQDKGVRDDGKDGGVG
In words: radiometric HotSpot kinase assay. In kind it is biochemical. Particulars: 10 μM compound, 10 μM ATP; read-out: % Enzyme inhibition at 10 μM, HRI. The procedure: as §1, §2

The target of data set [5] is T4, IRE1 (Homo sapiens, UniProt O75460).
T4 construct: purchased Reaction Biology Corporation (Malvern, PA)
T4 sequence (O75460 19-977): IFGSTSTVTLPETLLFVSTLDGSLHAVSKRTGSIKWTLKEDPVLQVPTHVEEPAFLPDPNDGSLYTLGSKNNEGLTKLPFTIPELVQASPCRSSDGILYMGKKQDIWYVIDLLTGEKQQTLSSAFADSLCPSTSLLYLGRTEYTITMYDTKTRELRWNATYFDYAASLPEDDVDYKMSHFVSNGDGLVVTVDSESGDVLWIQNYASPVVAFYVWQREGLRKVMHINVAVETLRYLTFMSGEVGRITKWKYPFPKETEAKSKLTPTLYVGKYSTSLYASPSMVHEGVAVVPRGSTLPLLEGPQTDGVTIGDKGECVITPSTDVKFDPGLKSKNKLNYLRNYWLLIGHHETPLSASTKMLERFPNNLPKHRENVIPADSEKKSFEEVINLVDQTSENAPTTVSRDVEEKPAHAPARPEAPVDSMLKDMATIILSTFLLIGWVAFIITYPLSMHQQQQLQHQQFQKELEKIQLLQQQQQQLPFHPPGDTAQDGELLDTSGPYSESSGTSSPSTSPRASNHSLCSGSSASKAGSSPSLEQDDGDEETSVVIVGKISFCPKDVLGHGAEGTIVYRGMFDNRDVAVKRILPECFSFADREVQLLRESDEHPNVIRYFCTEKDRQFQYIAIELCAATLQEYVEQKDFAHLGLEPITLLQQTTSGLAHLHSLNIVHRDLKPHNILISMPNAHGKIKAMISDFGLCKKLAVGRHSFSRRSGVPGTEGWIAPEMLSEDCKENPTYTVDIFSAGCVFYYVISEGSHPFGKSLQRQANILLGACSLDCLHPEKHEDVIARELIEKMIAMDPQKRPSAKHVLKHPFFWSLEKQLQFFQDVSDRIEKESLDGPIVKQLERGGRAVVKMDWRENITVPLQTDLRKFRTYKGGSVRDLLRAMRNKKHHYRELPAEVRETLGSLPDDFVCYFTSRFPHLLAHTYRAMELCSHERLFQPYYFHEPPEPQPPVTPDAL
In words: radiometric HotSpot kinase assay. It is filed as biochemical. Particulars: 10 μM compound, 10 μM ATP; read-out: % Enzyme inhibition at 10 μM, IRE1. Here is the method:
as §1, §2

Data set [6] deals with T5, PKR (Homo sapiens, UniProt P19525).
T5 construct: purchased Reaction Biology Corporation (Malvern, PA)
T5 sequence (P19525 whole entry): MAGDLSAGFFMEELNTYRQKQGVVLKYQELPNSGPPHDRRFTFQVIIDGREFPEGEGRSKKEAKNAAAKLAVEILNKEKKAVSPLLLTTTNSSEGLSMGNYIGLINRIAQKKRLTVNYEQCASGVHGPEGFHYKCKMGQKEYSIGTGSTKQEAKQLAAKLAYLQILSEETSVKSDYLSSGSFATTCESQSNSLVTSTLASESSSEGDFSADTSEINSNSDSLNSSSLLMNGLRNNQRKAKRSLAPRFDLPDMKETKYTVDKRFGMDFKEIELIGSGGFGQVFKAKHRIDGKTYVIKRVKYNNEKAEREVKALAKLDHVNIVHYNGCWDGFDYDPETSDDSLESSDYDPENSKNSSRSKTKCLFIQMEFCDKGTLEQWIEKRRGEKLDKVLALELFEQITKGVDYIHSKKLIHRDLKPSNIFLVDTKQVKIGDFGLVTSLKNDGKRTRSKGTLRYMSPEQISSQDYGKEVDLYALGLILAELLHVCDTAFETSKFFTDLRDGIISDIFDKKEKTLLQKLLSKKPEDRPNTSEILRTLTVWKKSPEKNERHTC
Put plainly: radiometric HotSpot kinase assay. It is filed as biochemical. To be noted: 10 μM compound, 10 μM ATP; read-out: % Enzyme inhibition at 10 μM, PKR. The procedure:
as §1, §2

A short description of data set [7]: Kinetic solubility assay. In kind it is physicochemical. To be noted: aqueous buffer, kinetic from dmso stock; PBS pH 7.4, 25 °C, 2 h. Here is the method: Compound solubility was determined in PBS at pH 7.4 by Pharmaron, Inc. (Beijing, China). Briefly, all compounds and control solutions were prepared in DMSO at concentrations of 10 mM. Diclofenac was used as a positive control. 10 μL or 30 μL of each compound was added into a 96-well plate, followed by adding 990 μL or 970 μL, respectively, of PBS at pH 7.4. A stir stick was added to each well and wells were sealed using a molded PTDE/SIL 96-Well Plate Cover. […] After incubation the samples were transferred into the filter plate and filtered by Vacuum Manifold. The filtered samples were diluted with methanol to obtain 3 μM standards (STD). The samples were analyzed by LC-MS/MS against a standard of known concentration in DMSO. The solubility values of duplicate test compounds were calculated in Microsoft Excel using the following equation, where DF means dilution factor: Sample=AREASample×INJVOLStd×DFSample×STD/AREAStd×INJVOLSample

The nature of data set [8]: Permeability assay (PAMPA). In kind it is in vitro ADME. To be noted: pH 7.4, 25 °C, <10 low, >10 high permeability. The procedure: GCN2 compound permeability was determined by PAMPA and was performed by Pharmaron, Inc. (Beijing, China). All compounds and control stock solutions were prepared in DMSO at a concentration of 10 mM. Testosterone and methotrexate were used as control compounds. Compound stock solutions were diluted with PBS (pH 7.4) to a final concentration of 10 μM. A 1.8% solution (w/v) of lecithin in dodecane was prepared and sonicated to ensure a complete dissolution. 5 μL of the lecithin/dodecane mixture were pipetted into each acceptor plate well (top compartment). Immediately after the application of the artificial membrane (within 10 min), 300 μL of PBS (pH 7.4) solution were added to each well of the acceptor plate. 300 μL of drug-containing solutions were added to each well of the donor plate (bottom compartment) in triplicate. The plate lid was replaced and incubated at 25 °C, 60 rpm for 16 h. After incubation, aliquots of 50 μL from each well of acceptor and donor plate were transferred into a 96-well plate and 200 μL of methanol (containing IS: 100 nM Alprazolam, 200 nM Labetalol and 2 μM Ketoprofen) was added to each well. The plate was vortexed at 750 rpm for 100 s. Samples were centrifuged at 3220g for 20 min. The compound concentrations were determined by LC/MS/MS. The effective permeability (Pe), in units of centimeter per second were calculated using the following equation: logPe=logC×−ln1−drugacceptor/drugequilibrium

T1 sequence (Q9P2K8 whole entry): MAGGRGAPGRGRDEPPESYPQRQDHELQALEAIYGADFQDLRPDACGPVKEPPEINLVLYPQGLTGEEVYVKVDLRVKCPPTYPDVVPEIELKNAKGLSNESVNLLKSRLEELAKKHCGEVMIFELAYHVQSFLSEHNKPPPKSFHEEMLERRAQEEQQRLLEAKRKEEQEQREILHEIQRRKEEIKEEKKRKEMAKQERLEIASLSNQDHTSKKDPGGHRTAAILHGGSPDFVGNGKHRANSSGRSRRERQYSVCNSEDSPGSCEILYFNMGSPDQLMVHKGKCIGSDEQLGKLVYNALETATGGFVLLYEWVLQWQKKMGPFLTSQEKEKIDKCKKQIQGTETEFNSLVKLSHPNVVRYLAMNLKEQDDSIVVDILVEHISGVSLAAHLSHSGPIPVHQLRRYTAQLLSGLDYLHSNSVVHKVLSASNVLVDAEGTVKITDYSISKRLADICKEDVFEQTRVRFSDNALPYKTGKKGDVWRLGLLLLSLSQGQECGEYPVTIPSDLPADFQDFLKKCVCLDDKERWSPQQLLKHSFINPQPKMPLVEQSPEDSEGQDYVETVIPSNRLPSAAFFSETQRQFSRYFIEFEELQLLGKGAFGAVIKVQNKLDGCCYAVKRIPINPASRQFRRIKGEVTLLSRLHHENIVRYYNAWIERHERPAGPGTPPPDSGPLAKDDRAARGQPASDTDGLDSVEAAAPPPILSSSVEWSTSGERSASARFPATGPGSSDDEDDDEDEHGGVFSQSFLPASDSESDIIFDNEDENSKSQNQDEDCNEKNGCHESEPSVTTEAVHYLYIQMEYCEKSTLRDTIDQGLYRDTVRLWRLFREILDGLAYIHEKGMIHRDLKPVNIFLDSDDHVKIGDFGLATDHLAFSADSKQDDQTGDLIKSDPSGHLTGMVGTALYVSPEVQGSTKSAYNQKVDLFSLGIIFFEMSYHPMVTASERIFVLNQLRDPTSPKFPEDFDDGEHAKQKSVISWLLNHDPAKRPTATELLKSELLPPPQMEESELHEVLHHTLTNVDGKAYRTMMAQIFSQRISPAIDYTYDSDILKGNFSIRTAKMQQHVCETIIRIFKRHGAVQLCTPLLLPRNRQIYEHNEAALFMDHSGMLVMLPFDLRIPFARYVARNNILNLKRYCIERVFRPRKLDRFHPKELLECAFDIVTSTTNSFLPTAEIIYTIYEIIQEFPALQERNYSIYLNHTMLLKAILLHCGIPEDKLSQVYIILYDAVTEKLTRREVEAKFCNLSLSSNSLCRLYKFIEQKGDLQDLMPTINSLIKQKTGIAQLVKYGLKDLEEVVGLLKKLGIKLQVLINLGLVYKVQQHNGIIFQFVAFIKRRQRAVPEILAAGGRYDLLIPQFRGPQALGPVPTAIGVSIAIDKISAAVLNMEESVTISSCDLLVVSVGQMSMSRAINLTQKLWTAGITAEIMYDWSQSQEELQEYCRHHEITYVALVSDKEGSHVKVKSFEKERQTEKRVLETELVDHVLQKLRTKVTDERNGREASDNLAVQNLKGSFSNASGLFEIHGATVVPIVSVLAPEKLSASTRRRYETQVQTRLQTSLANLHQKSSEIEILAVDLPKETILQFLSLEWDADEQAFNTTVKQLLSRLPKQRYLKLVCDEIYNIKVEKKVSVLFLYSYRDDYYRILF

For the compound `CNc1ncc2c(F)c(-c3c(C)ccc(C(=O)c4c(-c5ccccc5)n(C)n(-c5ccccc5)c4=O)c3N)ccc2n1` [4-{2-amino-3-[5-fluoro-2-(methylamino)quinazolin-6-yl]-4-methylbenzoyl}-1-methyl-2,5-diphenyl-1,2-dihydro-3H-pyrazol-3-one], the IC50 (commonly the point on the concentration scale where inhibition reaches its midpoint) in data set [1] is 36 nM.

Compound `CCOc1ccc(-n2nnc3cnc(Nc4cnn(C5CCOCC5)c4)nc32)cc1` [Compound 3, 3-(4-Ethoxyphenyl)-N-(1-(tetrahydro-2H-pyran-4-yl)-1H-pyrazol-4-yl)-3H-[1,2,3]triazolo[4,5-d]pyrimidin-5-amine] yielded a half-inhibitory concentration (IC50) in data set [2] of 44.5 nM. Moreover, the inhibition (as a rule, how much of the control response was suppressed) at 10 µM in data set [3] (10 μM compound, 10 μM ATP) came out at 25%.

For `Fc1cc(-n2nnc3cnc(Nc4cnn(C5CCOCC5)c4)nc32)ccc1Cl` [Compound 4, 3-(4-Chloro-3-fluorophenyl)-N-(1-(tetrahydro-2H-pyran-4-yl)-1H-pyrazol-4-yl)-3H-[1,2,3]triazolo[4,5-d]pyrimidin-5-amine], the inhibition at 10 µM in data set [4] was less than 10%; in data set [5], 18%; in data set [6] it was 96%; in data set [3] (10 μM compound, 10 μM ATP) it was less than 10%. This compound displayed an IC50 in data set [2] of 25.7 nM. Also, the concentration in solution in data set [7] (solubility at 2 h) came to 0.05 µM (≈ 0.0207 µg/mL). The Papp (as a rule, a coefficient for how fast a substance crosses the barrier) at 16 h, 10 μM in data set [8] worked out at 2.19 ×10⁻⁶ cm/s.

For `COC(=O)c1ccc(-n2nnc3cnc(Nc4cnn(C5CCOCC5)c4)nc32)cc1` [Compound 5, Methyl 4-(5-((1-(tetrahydro-2H-pyran-4-yl)-1H-pyrazol-4-yl)amino)-3H-[1,2,3]triazolo[4,5-d]pyrimidin-3-yl)benzoate], the inhibition at 10 µM in data set [4] was less than 10%; in data set [5] it was 22%; in data set [6], 96%; in data set [3] (10 μM compound, 10 μM ATP), less than 10%. For the same compound, in data set [2], the IC50 came to 17.2 nM. The solubility (commonly the concentration that dissolves in the medium under given conditions) at 2 h in data set [7] came out at 0.2 µM (≈ 0.0841 µg/mL). Also, in data set [8], the Papp at 16 h, 10 μM is 10.5 ×10⁻⁶ cm/s.

In data set [2], `c1nn(C2CCOCC2)cc1Nc1ncc2nnn(-c3ccc4cn[nH]c4c3)c2n1` [Compound 6, 3-(1H-Indazol-6-yl)-N-(1-(tetrahydro-2H-pyran-4-yl)-1H-pyrazol-4-yl)-3H-[1,2,3]triazolo[4,5-d]pyrimidin-5-amine] had an IC50 of 20.5 nM. Moreover, in data set [3] (10 μM compound, 10 μM ATP), the inhibition at 10 µM is 35%.

As for `CCOc1ccc(-n2nnc3cnc(Nc4cnn([C@H]5CC[C@H](O)CC5)c4)nc32)cc1` [Compound 7, trans-4-(4-((3-(4-Ethoxyphenyl)-3H-[1,2,3]triazolo[4,5-d]pyrimidin-5-yl)amino)-1H-pyrazol-1-yl)cyclohexan-1-ol], in data set [2], the midpoint of inhibition, the IC50, lay at 22.4 nM. Further, the inhibition at 10 µM in data set [3] (10 μM compound, 10 μM ATP) stood at 24%.

For the compound `O[C@H]1CC[C@H](n2cc(Nc3ncc4nnn(-c5ccc(Cl)c(F)c5)c4n3)cn2)CC1` [Compound 8, trans-4-(4-((3-(4-chloro-3-fluorophenyl)-3H-[1,2,3]triazolo[4,5-d]pyrimidin-5-yl)amino)-1H-pyrazol-1-yl)cyclohexan-1-ol], the inhibition at 10 µM in data set [4] is less than 10%; in data set [5] it was 15%; in data set [6], 98%; in data set [3] (10 μM compound, 10 μM ATP), less than 10%. In data set [2], half-maximal inhibition (IC50) required 21.1 nM. The compound also displayed a solubility at 2 h in data set [7] of 0.1 µM (≈ 0.0429 µg/mL). The compound further registered a Papp at 16 h, 10 μM in data set [8] of 4.68 ×10⁻⁶ cm/s.

As to `COC(=O)c1ccc(-n2nnc3cnc(Nc4cnn([C@H]5CC[C@H](O)CC5)c4)nc32)cc1` [Compound 9, methyl 4-(5-((1-(trans-4-hydroxycyclohexyl)-1H-pyrazol-4-yl)amino)-3H-[1,2,3]triazolo[4,5-d]pyrimidin-3-yl)benzoate], the inhibition at 10 µM in data set [4] was less than 10%; in data set [5] it was 24%; in data set [6], 95%; in data set [3] (10 μM compound, 10 μM ATP), 14%. The half-inhibitory concentration (IC50) in data set [2] is 46.4 nM. The same compound came in with a solubility at 2 h in data set [7] of 0.17 µM (≈ 0.0739 µg/mL). For the same compound, the Papp at 16 h, 10 μM in data set [8] amounted to 2.29 ×10⁻⁶ cm/s.

In data set [2], `Cc1cccc(CC(=O)N2CCc3c2ccc(-c2cn(C)c4ncnc(N)c24)c3F)n1` [GSK2656157, reference compound] returned an IC50 greater than 10000 nM. Also, the inhibition at 10 µM in data set [3] came out at 100%.
